Data on 1 molecule can be found in publication PMC12670164, “In vitro and clinical data demonstrate negligible risk of drug–drug interactions with opelconazole, a novel inhaled antifungal agent” (Journal of Antimicrobial Chemotherapy, 2025).

Values joined by “and” are separate entries in the source; they are usually repeats but may differ in a detail not shown here. Equal entries are not always repeated. Where two headings read alike, the source gives them in different places. Where only a bound is given, the exact number is not on record here.

The subject of data set [1] is cryopreserved human hepatocytes. Put plainly: MTT cytotoxicity assessment in hepatocytes. The format is cell-based. As to conditions: up to 3 μM, one donor. The protocol: The hepatocyte cells were dosed with opelconazole (0.012, 0.03, 0.12, 0.3, 1.2 and 3 μM) and positive control compounds (omeprazole for CYP1A2 and rifampicin for CYP3A4).
The test system of another data set is CYP1A2. Put plainly: CYP induction, mRNA endpoint, cryopreserved human hepatocytes. To be noted: for CYP1A2 mRNA increase: concentration-dependent, 72 h. Here is the method:
The potential for opelconazole to act as an inducer of CYP isoforms CYP1A2, CYP2B6 and CYP3A4 was assessed in vitro using an mRNA endpoint across three donors in cryopreserved human hepatocytes. A drug is interpreted as an inducer if: (1) it increases mRNA expression of a CYP enzyme in a concentration-dependent manner and (2) the fold change of CYP mRNA expression relative to vehicle control is ≥2-fold at the drug’s expected hepatic concentrations.[23]
(§1) A cytotoxicity assessment using MTT was performed in one of the three donors used for the induction studies prior to dosing.

For data set [2], the system named is CYP3A4. The protocol:
The potential for opelconazole to act as an inducer of CYP isoforms CYP1A2, CYP2B6 and CYP3A4 was assessed in vitro using an mRNA endpoint across three donors in cryopreserved human hepatocytes.
as §1

In the next data set the test system is CYP isoforms. Put plainly: Initial CYP inhibition study in human liver microsomes. The class given is in vitro ADME. To be noted: opelconazole 0.03 to 5 μM. A general note: Microsomes from liver hold many membrane-bound enzymes, among them those of drug oxidation.
Data set [3] has as its target CYP3A4 (Homo sapiens, UniProt P08684). The class given is in vitro ADME. To be noted: incubated with 0.01 and 0.1 µM opelconazole. Here is the method:
The testing of opelconazole as a potential substrate of CYP1A2, 2B6, 2C8, 2C9, 2C19, 2D6 and 3A4 was determined in vitro using recombinant CYP enzymes. Two concentrations of opelconazole (0.01 and 0.1 µM) were tested with each of the seven CYPs.
The relative contributions of CYP3A4 and CYP2C9 were ∼75% and 25%, respectively, when incubated with 0.01 and 0.1 µM opelconazole.

Details of data set [4]: method as in unpublished data; L.M.R. Cass and L. Berman. As to conditions: ref unpublished data; L.M.R. Cass and L. Berman; cited from earlier work.
The test system of data set [5] is Aspergillus fumigatus clinical strains. More on the design: method as in PMID 33340279. As to conditions: cited from earlier work.

CYP3A4 (Homo sapiens, UniProt P08684), sequence (P08684 whole entry): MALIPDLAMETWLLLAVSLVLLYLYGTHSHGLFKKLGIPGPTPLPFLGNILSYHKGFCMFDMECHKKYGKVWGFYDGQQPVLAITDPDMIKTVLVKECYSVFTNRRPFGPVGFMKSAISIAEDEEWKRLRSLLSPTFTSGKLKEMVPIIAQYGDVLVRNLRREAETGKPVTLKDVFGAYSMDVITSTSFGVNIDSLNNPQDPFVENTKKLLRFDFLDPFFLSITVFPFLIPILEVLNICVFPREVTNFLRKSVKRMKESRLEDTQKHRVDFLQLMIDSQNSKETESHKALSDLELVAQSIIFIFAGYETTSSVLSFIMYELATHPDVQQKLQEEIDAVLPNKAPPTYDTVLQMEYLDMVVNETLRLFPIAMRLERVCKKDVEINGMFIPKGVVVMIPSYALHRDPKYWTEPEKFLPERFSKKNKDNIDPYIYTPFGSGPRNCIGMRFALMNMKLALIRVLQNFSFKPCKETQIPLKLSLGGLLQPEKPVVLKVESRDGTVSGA
Experimental for CYP isoforms: The potential for opelconazole to inhibit CYP isoforms was tested in vitro in human liver microsomes. […] Preincubation of the human liver microsomes for periods of 0 min without NADPH and 30 min with NADPH, plus 30 min without NADPH were included to assess for a time-dependent inhibition effect. Two structurally diverse substrates (testosterone and midazolam) were tested to assess substrate-dependent inhibition.

For the molecule `Cc1cc(N2CCN(c3ccc(C(=O)Nc4ccc(F)cc4)cc3)CC2)ccc1OC[C@@H]1CO[C@@](Cn2cncn2)(c2ccc(F)cc2F)C1` [opelconazole], the “cytotoxicity (MTT)” value in data set [1] is “no cytotoxicity was observed”. The “opelconazole concentration giving threshold induction outcome” value in the data set on CYP1A2 (CYP1A2, in vitro) was 0.3 μM and 204 ng/mL. For the same molecule, the “CYP1A2 mRNA increase” value in the data set on CYP1A2 (donor 1, opelconazole ≥0.3 μM) is given as 2.72 fold; in the data set on CYP1A2 (donor 2, opelconazole ≥0.3 μM) it was 1.97 fold. For the same molecule, the “CYP3A4 mRNA expression increase” value in the data set with CYP3A4 [2] (donor 1, only at 0.3 μM, 72 h) is 2.17 fold; with CYP3A4 [2] (donors 2 and 3, any concentration (0.012–3 μM)) it was less than 2 fold. Besides, the “CYP inhibition, initial study” value in the data set on CYP isoforms is “limited to CYP3A4”. Moreover, the “relative contribution of CYP3A4 to metabolism of opelconazole” value at CYP3A4 [3] is recorded as roughly 75%. Also, the “oral bioavailability of any swallowed fraction” value in data set [4] was “negligible”. For the same molecule, the “minimal inhibitory concentration required to inhibit 90% of clinical strains” value in data set [5] is 1 µg/mL.
